Measured values: patent US20110034457A1, “Pyridothiophene Compounds” (VERNALIS (CAMBRIDGE) LIMITED., priority 2003, published 2011)
pIC50: −log10 of the molar value.

target: T1, human full-length HSP90 (Homo sapiens, UniProt P08238); assay: Fluorescence polarization assay (competitive displacement of probe RBT0045864-FAM from HSP90); assay type: binding; conditions: not given
T1 construct: E. coli expressed human full-length HSP90 protein, purified >95%; made in house; host or cells: E. coli
Text: Fluorescence polarization {also known as fluorescence anisotropy} measures the rotation of a fluorescing species in solution, where the larger molecule the more polarized the fluorescence emission. When the fluorophore is excited with polarized light, the emitted light is also polarized. The molecular size is proportional to the polarization of the fluorescence emission.
The fluoroscein-labelled probe—RBT0045864-FAM—
binds to HSP90 {full-length human, full-length yeast or N-terminal domain HSP90} and the anisotropy {rotation of the probe:protein complex} is measured.
Test compound is added to the assay plate, left to equilibrate and the anisotropy measured again. Any change in anisotropy is due to competitive binding of compound to HSP90, thereby releasing probe.
Stored at room temperature. • 3) BSA (bovine serum albumen) 10 mg/ml (New England Biolabs # B9001S) • 4) 20 mM probe in 100% DMSO stock concentration. Stored in the dark at RT. Working concentration is 200 nM diluted in AR water and stored at 4° C.
• 1) Add 100 μl 1× buffer to wells 11A and 12A (=FP BLNK) • 2) Prepare assay mix—all reagents are kept on ice with a lid on the bucket as the probe is light-sensitive.
• 3) Aliquot 100 μl assay mix to all other wells • 4) Seal plate and leave in dark at room temp for 20 minutes to equilibrate
This gives 2.5 mM {50×} stock cpd—assuming cpds 20 mM. • 4) Repeat for wells A2 to A10. Control in columns 11 and 12. • 5) Transfer 5 μl from row A to row B—not column 12. Mix well. • 6) Transfer 5 μl from row B to row C. […] Add 2 μl of 100 mM standard cpd to wells B12-H12 {is positive control} • 13) The Z′ factor is calculated from zero controls and positive wells.

T1 sequence (P08238 whole entry): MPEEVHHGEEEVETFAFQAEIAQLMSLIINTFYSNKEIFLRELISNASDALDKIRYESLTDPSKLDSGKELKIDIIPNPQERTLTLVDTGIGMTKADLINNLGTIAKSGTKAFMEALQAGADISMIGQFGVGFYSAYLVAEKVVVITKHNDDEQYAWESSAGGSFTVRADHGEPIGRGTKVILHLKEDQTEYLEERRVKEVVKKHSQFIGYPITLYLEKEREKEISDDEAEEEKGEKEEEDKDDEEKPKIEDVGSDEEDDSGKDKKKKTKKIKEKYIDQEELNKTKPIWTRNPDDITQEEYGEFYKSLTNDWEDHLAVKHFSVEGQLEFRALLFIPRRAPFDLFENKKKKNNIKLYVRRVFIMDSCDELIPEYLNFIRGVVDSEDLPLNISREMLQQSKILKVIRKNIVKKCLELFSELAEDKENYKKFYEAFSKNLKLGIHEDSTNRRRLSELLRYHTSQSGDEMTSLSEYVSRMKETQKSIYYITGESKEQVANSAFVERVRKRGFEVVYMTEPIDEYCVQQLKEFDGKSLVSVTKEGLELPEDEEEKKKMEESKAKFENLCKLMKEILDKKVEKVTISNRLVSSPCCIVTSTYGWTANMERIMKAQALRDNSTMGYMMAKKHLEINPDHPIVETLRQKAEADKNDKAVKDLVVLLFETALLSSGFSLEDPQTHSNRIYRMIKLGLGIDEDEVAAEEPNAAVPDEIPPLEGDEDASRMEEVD

Structure (SMILES)	pIC50
CCOc1ccc(-c2c(C#N)c(N)nc3sc(C(N)=O)c(N)c23)cc1 [Example 8]	> 5.00

same assay, conditions: fluorescence polarisation, E. coli expressed human full-length HSP90 200 nM, probe 80 nM; read-out: Hsp90 FP IC50

Structure (SMILES)	pIC50
COc1cccc(NC(=O)c2sc3nc(N)c(C#N)c(-c4ccc(C(C)C)cc4)c3c2N)c1 [Example 3]	< 5.00
CC(C)NC(=O)c1sc2nc(N)c(C#N)c(-c3ccccc3)c2c1N [Example 11]	< 5.00
N#Cc1c(N)nc2sc(C(=O)NCc3ccccc3)c(N)c2c1-c1ccccc1 [Example 12]	< 5.00
COC(=O)c1sc2nc(N)c(C#N)c(-c3ccc(OC(C)C)cc3)c2c1N [Example 27]	< 5.00
N#Cc1c(N)nc2sc(C(=O)NCCCN3CCOCC3)c(N)c2c1-c1ccccc1 [Example 19]	< 5.00
N#Cc1c(N)nc2sc(C(=O)Nc3ccccc3)c(N)c2c1-c1ccc(Br)cc1 [Example 9]	< 5.00
Cc1ccccc1NC(=O)c1sc2nc(N)c(C#N)c(-c3ccc(C(C)C)cc3)c2c1N [Example 2]	< 5.00
N#Cc1c(N)nc2sc(C(=O)NCC(N)=O)c(N)c2c1-c1ccccc1 [Example 22]	> 5.00
N#Cc1c(N)nc2sc(C(=O)N3CCOCC3)c(N)c2c1-c1ccccc1 [Example 20]	< 5.00
CCNC(=O)c1sc2nc(N)c(C#N)c(-c3ccccc3)c2c1N [Example 1, 3,6-Diamino-5-cyano-4-phenyl-thieno[2,3-b]pyridine-2-carboxylic acid ethylamide]	> 5.00
CCN(CC)C(=O)c1sc2nc(N)c(C#N)c(-c3ccccc3)c2c1N [Example 13]	< 5.00
CC(C)c1ccc(-c2c(C#N)c(N)nc3sc(C(N)=O)c(N)c23)cc1 [Example 6]	> 5.00
CN(C)CCCNC(=O)c1sc2nc(N)c(C#N)c(-c3ccccc3)c2c1N [Example 17]	< 5.00
N#Cc1c(N)nc2sc(C(N)=O)c(N)c2c1-c1ccc(Cl)cc1 [Example 7]	> 5.00
COc1ccc(-c2c(C#N)c(N)nc3sc(C(N)=O)c(N)c23)cc1OC [Example 10]	< 5.00
N#Cc1c(N)nc2sc(C(N)=O)c(N)c2c1-c1ccccc1 [Example 25]	< 5.00
CC(C)c1ccc(-c2c(C#N)c(N)nc3sc(C(=O)Nc4nccs4)c(N)c23)cc1 [Example 5]	< 5.00
N#Cc1c(N)nc2sc(C(=O)NCCN)c(N)c2c1-c1ccccc1 [Example 26]	< 5.00
N#Cc1c(N)nc2sc(C(=O)NCCO)c(N)c2c1-c1ccccc1 [Example 24]	< 5.00
N#Cc1c(N)nc2sc(C(N)=O)c(N)c2c1-c1ccc(Br)cc1 [Example 4]	< 5.00
CN1CCN(C(=O)c2sc3nc(N)c(C#N)c(-c4ccccc4)c3c2N)CC1 [Example 16]	< 5.00
COC(=O)CNC(=O)c1sc2nc(N)c(C#N)c(-c3ccccc3)c2c1N [Example 15]	> 5.00
N#Cc1c(N)nc2sc(C(=O)NCCN3CCOCC3)c(N)c2c1-c1ccccc1 [Example 21]	< 5.00
CN(C)CCNC(=O)c1sc2nc(N)c(C#N)c(-c3ccccc3)c2c1N [Example 23]	< 5.00
CN1CCN(CCCNC(=O)c2sc3nc(N)c(C#N)c(-c4ccccc4)c3c2N)CC1 [Example 18]	< 5.00
CNC(=O)c1sc2nc(N)c(C#N)c(-c3ccccc3)c2c1N [Example 14]	> 5.00
